Source: patent US11046798B2, “Phosphono-phosphate containing compounds and polymers” (The Procter & Gamble Company, priority 2017, dated 2021)
Several values for one entry are separate records, joined by “and”; a condition that tells them apart may be missing. Equal entries are not always repeated.

Experiments:
[1] = Powder Stain Removal Model (PSRM)
Text: The Powder Stain Removal Model (PSRM) is a screening technique where hydroxyapatite powder (HAP) is used as a substrate for stain accumulation. The purpose of this technique is to illustrate and quantify the stain removal properties of chemical agents used in oral care. Hydroxyapatite powder provides a large surface area to which tea chromogens adsorb. […] The magnitude of stain removal can then be quantified by image analysis. A trial of this model can be completed in three days. Steps involved in PSRM are described below.
Prepare large batch of tea stain HAP by stirring 10 g of HAP powder in 200 ml of filtered tea for 5 minutes. Divide into centrifuge tubes and centrifuge at 15,000 rpm for 15 mins. Wash pellet by adding in 25 ml of water, vortexing, centrifuging at 15,000 rpm for 15 mins, and pipet out liquid. Make sure pellet breaks up during vortexing. Repeat wash.
Place centrifuge tubes in convection oven (55-65° C.) overnight to dry stained HAP. Once dried, pool stained HAP together and grind to a fine powder with pestle and mortar.
Tube is vortexed for I minute to fully suspend HAP in treatment followed by centrifugation at 15,000 rpm for 15 mins. After centrifugation, supernatant is decanted and pellet redistributed by adding 25 ml of water, vortexing, centrifuging at 15,000 rpm for 15 mins, and decanting-making sure pellet breaks up during vortexing. The wash cycle is repeated one more time.
Vortex pellet in approximately 10 ml of water until fully suspended followed by filtering under vacuum onto a Millipore filter disk (Membrane Filters 4.5 μm, 47 mm Catalog #HAWP04700, Millipore Corporation, Bedford, Mass.). Prepare a control disk using=200 mg of untreated, stained HAP. Filter disks are then dried overnight in flat position and then laminated.
Whitelight system: HAP disk (untreated HAP control and HAP treatments) is placed in a stabilized sample holder. The color is measured using a digital camera camera having a lens equipped with a polarizer filter (Camera model no. CANON EOS 70D from Canon Inc., Melville, N.Y. with NIKON 55 mm micro-NIKKOR lens with adapter). The light system is provided by Dedo lights (model number DLH2) equipped with 150 watt, 24V bulbs model number (Xenophot model number HL X64640), positioned about 30 cm apart (measured from the center of the external circular surface of one of the glass lens through which the light exits to the other) and aimed at a 45 degree angle such that the light paths meet on the HAP disk. Image analysis is performed using Whitelight with Ultragrab, Optimas and Giant Imaging software.
Usual controls for a single polymer PSRM are water as a treatment followed by exposure to tea, and water without exposure to tea. Additionally, pyrophosphate and polyphosphate are run as internal controls. […]

[2] = Powder Stain Prevention Model (PSPM)
Text: The Powder Stain Prevention Model (PSPM) is a screening technique where hydroxyapatite powder (HAP) is used as a substrate for stain accumulation. The general purpose of this technique is to illustrate and quantify the stain prevention ability or staining potential of chemical agents used in oral care. Hydroxyapatite powder provides a large surface area to which tea chromogens adsorb. Pretreatment of HAP with oral care actives, either in rinse or dentifrice form, results in different levels of stain accumulation depending upon the ability of the actives to block or enhance the binding of these chromogens onto HAP surface. The magnitude of stain can then be quantified by image analysis.
Tube is vortexed for 30 seconds to fully suspend HAP in treatment followed by centrifugation at 15,000 rpm for 15 mins. After centrifugation, supernatant is decanted and pellet redistributed by adding 25 ml of water, vortexing, centrifuging at 15,000 rpm for 15 mins, and decanting-making sure pellet breaks up during vortexing. The wash cycle is repeated two more times.
After final water wash, 20 ml of filtered tea (1 Lipton tea bag per 100 ml of hot water seeped for 5 minutes, filtered and used at 50° C.) is added to each pellet and vortexed for 30 seconds to fully suspend HAP in tea. Powder suspension is centrifuged at 15,000 rpm for 15 mins and decanted. About 25 ml of water is added to the tube, vortexed and then centrifuging at 15,000 rpm for 15 mins. The liquid is decanted and wash cycle is repeated 2 more times.
Vortex pellet in approximately 10 ml of water until fully suspended followed by filtering under vacuum onto a Millipore filter disk (Membrane Filters 4.5 μm, 47 mm Catalog #HAWP04700, Millipore Corporation, Bedford, Mass.). Prepare a control disk using. −200 mg of untreated, unstained HAP. Filter disks are then dried overnight in flat position and then laminated.
Whitelight system: HAP disk (untreated HAP control and HAP treatments) is placed in a stabilized sample holder. The color is measured using a digital camera having a lens equipped with a polarizer filter (Camera model no. CANON EOS 70D from Canon Inc., Melville, N.Y. with NIKON 55 mm micro-NIKKOR lens with adapter). The light system is provided by Dedo lights (model number DLH2) equipped with 150 watt, 24V bulbs model number (Xenophot model number HL X64640), positioned about 30 cm apart (measured from the center of the external circular surface of one of the glass lens through which the light exits to the other) and aimed at a 45 degree angle such that the light paths meet on the HAP disk. Image analysis is performed using Whitelight with Ultragrab, Optimas and Giant Imaging software.
Usual controls for a single polymer PSPM are water as a treatment followed by exposure to tea, and water without exposure to tea. […]

With `O=P(O)(O)OP(=O)(O)O` [Pyrophosphate] the “Delta L” value [1] was 14.2, the “PSRM (ΔL)” value [1] was 13.0-18 and the “PSRM ΔL” value [1] was 12.4 and 13.5. For the same compound, the “Delta L” value [2] was 16.3, the “PSPM (ΔL)” value [2] was 12.2-16.0 and the “PSPM ΔL” value [2] was 18.0 and 14.3.
